# Laboratory results published in patent US20250295763A1 (priority 2024, published 2025).
# Read-outs that look alike come from different tables or passages of the source. Peptide text beside a SMILES is read from it. * marks the point of attachment. X1 = CCCCCCCCCCCCCCCC(=O)OCC(C*)OC(=O)CCCCCCCCCCCCCCC
# How the values were obtained:
# [1] = tested on: H3N2; type: in vivo, C57BL/6 mice
# [2] = for Body weight change (%) Post-dose 1 D 1 / Average body weight change (%) Post-dose 1 D 1: i.m. Days 0 and 14, 0.3 mcg H3N2; for Body weight change (%) Post-dose 1 D 2 / Body weight change (%) Post-dose 1 D 14 / Body weight change (%) Post-dose 2 D 15 / Body weight change (%) Post-dose 2 D 16 / Body weight change (%) Post-dose 2 D 21 / Average body weight change (%) Post-dose 1 D 2 / Average body weight change (%) Post-dose 1 D 14 / Average body weight change (%) Post-dose 2 D 15 / Average body weight change (%) Post-dose 2 D 16 / Average body weight change (%) Post-dose 2 D 21: same groups
# [3] = background statement; cited from earlier work
# [4] = Table 4, after the boost (day 28), 5 mcg TLR4 agonist / 50 mcg Synsap, 0.3 mcg H3N2
# [5] = Table 3, 5/50 mcg TLR4 agonist/Synsap, alone: 5 mcg 3D-6A-PHAD, 5 mcg EcML, 10 mcg TLR4-1, 50 mcg Synsap, 5/5 mcg AS01B
# [6] = Table 6, after the boost (day 28), 100 mcg Synsap 5, 10 mcg Pam3CSK4, 0.3 mcg H3N2
# [7] = Table 5, 100 mcg Synsap 5, 10 mcg Pam3CSK4
# [8] = Table 8, after the boost (day 28), 10 mcg R848 with 2, 10, 50 or 100 mcg Synsap 14, 0.3 mcg H3N2
# [9] = Table 7, 10 mcg R848 with 2, 10, 50 or 100 mcg Synsap 14
molecule,measurement,setting,value
CC1O[C@@H](OC(=O)[C@]23CCC(C)(C)CC2C2=CCC4C5(C)CC[C@H](O[C@@H]6O[C@H](C(=O)NCCCCCCCCc7ccc(Oc8ccccc8)cc7)[C@@H](O)[C@H](O)[C@H]6O)[C@](C)(C=O)[C@@H]5CC[C@]4(C)C2(C)CC3O)C(O[C@@H]2OC(C)[C@H](O[C@@H]3OC[C@@H](O)[C@H](O)C3O)[C@H](O[C@@H]3OC(CO)[C@@H](O)[C@H](O)C3O)C2O)[C@@H](O)[C@H]1O (some centres unmarked) [Synsap 17],HI titer GMT mean,"[1]; Table 10, after the boost (day 28), CpG 1018 / Synsap 17 ratios, 0.3 mcg H3N2",183.8
same,HI titer Fold (compare to CpG1018),"[1]; Table 10, day 28",0.6
same,HI titer Fold (compare to H3N2),"[1]; Table 10, day 28",1.1
same,HI titer Fold (compare to Synsap 17),"[1]; Table 10, day 28",1.0
same,Body weight change (%) Post-dose 1 D 1,"[2]; Table 9, 10 mcg CpG 1018 with 10, 50, 75 or 100 mcg Synsap 17, or 50 mcg CpG 1018 with 10 mcg Synsap 17",−1.769%
same,Body weight change (%) Post-dose 1 D 2,[2]; Table 9,−0.704%
same,Body weight change (%) Post-dose 1 D 14,[2]; Table 9,3.586%
same,Body weight change (%) Post-dose 2 D 15,[2]; Table 9,−0.277%
same,Body weight change (%) Post-dose 2 D 16,[2]; Table 9,−0.654%
same,Body weight change (%) Post-dose 2 D 21,[2]; Table 9,2.921%
CC1O[C@@H](OC(=O)[C@]23CCC(C)(C)CC2C2=CCC4C5(C)CC[C@H](O[C@@H]6O[C@H](C(=O)NCCCCCCCCc7ccc(Oc8ccccc8)cc7)[C@@H](O)[C@H](O)[C@H]6O)[C@](C)(C=O)[C@@H]5CC[C@]4(C)C2(C)CC3O)C(O[C@@H]2OC(C)[C@H](O[C@@H]3OC[C@@H](O)[C@H](O)C3O)[C@H](O)C2O)[C@@H](O)[C@H]1O (some centres unmarked) [Synsap 3],HI titers GMT mean,[1]; [4],192
same,HI titers Fold (compare to AS01B),"[1]; Table 4, day 28",0.15
same,HI titers Fold (compare to H3N2),"[1]; Table 4, day 28",1.2
same,Average body weight change (%) Post-dose 1 D 1,"[2]; Table 1, 5 mcg 3D-PHAD with 5, 50, 75 or 100 mcg Synsap 3, Synsap 3 alone 50 mcg",2.176%
same,Average body weight change (%) Post-dose 1 D 2,[2]; Table 1,2.174%
same,Average body weight change (%) Post-dose 1 D 14,[2]; Table 1,6.946%
same,Average body weight change (%) Post-dose 2 D 15,[2]; Table 1,−0.739%
same,Average body weight change (%) Post-dose 2 D 16,[2]; Table 1,1.208%
same,Average body weight change (%) Post-dose 2 D 21,[2]; Table 1,2.329%
same,Average body weight change (%) Post-dose 1 D 1,[2]; [5],2.176%
same,Average body weight change (%) Post-dose 1 D 2,[2]; Table 3,2.174%
same,Average body weight change (%) Post-dose 1 D 14,[2]; Table 3,6.946%
same,Average body weight change (%) Post-dose 2 D 15,[2]; Table 3,−0.739%
same,Average body weight change (%) Post-dose 2 D 16,[2]; Table 3,1.208%
same,Average body weight change (%) Post-dose 2 D 21,[2]; Table 3,2.329%
"CCCCCCCCCCCCCC(=O)O[C@H](CCCCCCCCCCC)CC(=O)OC1C(NC(=O)C[C@@H](CCCCCCCCCCC)OC(=O)CCCCCCCCCCC)[C@H](OCC2O[C@H](O)C(NC(=O)C[C@H](O)CCCCCCCCCCC)C(OC(=O)C[C@H](O)CCCCCCCCCCC)[C@@H]2O)OC(CO)[C@H]1OP(=O)(O)O (some centres unmarked) [EcML, reference compound]",HI titers GMT mean,[1]; [4],403.2
same,HI titers Fold (compare to AS01B),"[1]; Table 4, day 28",0.3
same,HI titers Fold (compare to H3N2),"[1]; Table 4, day 28",2.5
same,Average body weight change (%) Post-dose 1 D 1,[2]; [5],−3.607%
same,Average body weight change (%) Post-dose 1 D 2,[2]; Table 3,−1.832%
same,Average body weight change (%) Post-dose 1 D 14,[2]; Table 3,7.914%
same,Average body weight change (%) Post-dose 2 D 15,[2]; Table 3,−3.002%
same,Average body weight change (%) Post-dose 2 D 16,[2]; Table 3,−0.735%
same,Average body weight change (%) Post-dose 2 D 21,[2]; Table 3,1.468%
Poly(I:C) [reference compound],HI titer Fold (compare to H3N2),"[1]; mouse, in vivo",1
same,HI titer Fold (compare to SynSap 21),"[1]; mouse, in vivo",0.5
same,HI titer Fold (compare to TLR3),"[1]; mouse, in vivo",0.3299
same,HI titer GMT mean,"[1]; mouse, in vivo",640
"CCCCCCCCCCCCCC(=O)O[C@H](CCCCCCCCCCC)CC(=O)NC1C(OC(=O)C[C@@H](CCCCCCCCCCC)OC(=O)CCCCCCCCCCCCC)[C@H](OP(=O)(O)O)C(CO)O[C@H]1OCC1O[C@H](O)C(NC(=O)C[C@@H](CCCCCCCCCCC)OC(=O)CCCCCCCCCCCCC)C(O)[C@@H]1O.N (some centres unmarked) [Synsap 3D-6A-PHAD, reference compound]",HI titers GMT mean,[1]; [4],806.3
same,HI titers Fold (compare to AS01B),"[1]; Table 4, day 28",0.6
same,HI titers Fold (compare to H3N2),"[1]; Table 4, day 28",5.0
same,Average body weight change (%) Post-dose 1 D 1,[2]; [5],−5.362%
same,Average body weight change (%) Post-dose 1 D 2,[2]; Table 3,−2.900%
same,Average body weight change (%) Post-dose 1 D 14,[2]; Table 3,6.215%
same,Average body weight change (%) Post-dose 2 D 15,[2]; Table 3,−1.147%
same,Average body weight change (%) Post-dose 2 D 16,[2]; Table 3,0.463%
same,Average body weight change (%) Post-dose 2 D 21,[2]; Table 3,2.331%
"CCCCCCCCCCCCCCCC(=O)OCC(CSC[C@H](N)C(=O)N[C@@H](CO)C(=O)N[C@@H](CCCCN)C(=O)N[C@@H](CCCCN)C(=O)N[C@@H](CCCCN)C(=O)N[C@@H](CCCCN)C(=O)O)OC(=O)CCCCCCCCCCCCCCC (some centres unmarked) [Pam3CSK4, reference compound] (H-C(X1)SKKKK-OH)",HI titers GMT mean,[1]; [6],2176
same,HI Titers Fold (compare to CpG1018),"[1]; Table 6, day 28",1.0
same,HI Titers Fold (compare to SynSap 17),"[1]; Table 6, day 28",1.1
same,HI titers Fold (compare to H3N2),"[1]; Table 6, day 28",14
same,Body weight change (%) Post-dose 1 D 1,[2]; [7],−0.996%
same,Body weight change (%) Post-dose 1 D 2,[2]; Table 5,2.635%
same,Body weight change (%) Post-dose 1 D 14,[2]; Table 5,6.308%
same,Body weight change (%) Post-dose 2 D 15,[2]; Table 5,−0.998%
same,Body weight change (%) Post-dose 2 D 16,[2]; Table 5,0.169%
same,Body weight change (%) Post-dose 2 D 21,[2]; Table 5,4.551%
CC1O[C@@H](OC2[C@H](OC(=O)[C@]34CCC(C)(C)CC3C3=CCC5C6(C)CC[C@H](O[C@@H]7O[C@H](C(=O)NCCCCCCCCc8ccc(Oc9ccc(F)cc9)cc8)[C@@H](O)[C@H](O)[C@H]7O)[C@](C)(C=O)[C@@H]6CC[C@]5(C)C3(C)CC4O)OC[C@H](O)[C@H]2O)C(O)[C@@H](O)[C@H]1O[C@@H]1OC[C@@H](O)[C@H](O)C1O (some centres unmarked) [Synsap 14],HI titer GMT mean,[1]; [8],192
same,HI titer Fold (compare to H3N2 alone),"[1]; Table 8, day 28",1.2
same,HI titer Fold (compare to R848 treated group),"[1]; Table 8, day 28",1.0
same,HI titer Fold (compare to SynSap 14 treated group),"[1]; Table 8, day 28",1.0
same,Body weight change (%) Post-dose 1 D 1,[2]; [9],−1.769%
same,Body weight change (%) Post-dose 1 D 2,[2]; Table 7,−0.704%
same,Body weight change (%) Post-dose 1 D 14,[2]; Table 7,3.586%
same,Body weight change (%) Post-dose 2 D 15,[2]; Table 7,−0.277%
same,Body weight change (%) Post-dose 2 D 16,[2]; Table 7,−0.654%
same,Body weight change (%) Post-dose 2 D 21,[2]; Table 7,3.064%
CCC(C)C(CC(O)CC(=O)OC1C(C)OC(OC(=O)C23CCC(C)(C)CC2C2=CCC4C5(C)CCC(OC6OC(C(=O)O)C(O)C(OC7OCC(O)C(O)C7O)C6OC6OC(CO)C(O)C(O)C6O)C(C)(C=O)C5CCC4(C)C2(C)CC3O)C(OC2OC(C)C(OC3OCC(O)C(OC4OCC(O)(CO)C4O)C3O)C(OC3OC(CO)C(O)C(O)C3O)C2O)C1O)OC(=O)CC(O)CC(OC1OC(CO)C(O)C1O)C(C)CC (centres unmarked) [QS-18],solubility in water,[3],water-soluble
COc1ccc(CCCCCCCCNC(=O)[C@H]2O[C@@H](O[C@H]3CCC4(C)C5CC=C6C7CC(C)(C)CC[C@]7(C(=O)O[C@@H]7OC(C)[C@H](O)[C@H](O)C7O[C@@H]7OC(C)[C@H](O[C@@H]8OC[C@@H](O)[C@H](O)C8O)[C@H](O)C7O)C(O)CC6(C)[C@@]5(C)CC[C@H]4[C@@]3(C)C=O)[C@H](O)[C@@H](O)[C@@H]2O)cc1 (some centres unmarked) [Synsap 1],HI titers GMT mean,[1]; [4],320
same,HI titers Fold (compare to AS01B),"[1]; Table 4, day 28",0.25
same,HI titers Fold (compare to H3N2),"[1]; Table 4, day 28",2
same,Average body weight change (%) Post-dose 1 D 1,[2]; [5],−1.096%
same,Average body weight change (%) Post-dose 1 D 2,[2]; Table 3,−1.736%
same,Average body weight change (%) Post-dose 1 D 14,[2]; Table 3,3.753%
same,Average body weight change (%) Post-dose 2 D 15,[2]; Table 3,2.417%
same,Average body weight change (%) Post-dose 2 D 16,[2]; Table 3,−1.393%
same,Average body weight change (%) Post-dose 2 D 21,[2]; Table 3,6.148%
CC1O[C@@H](OC(=O)[C@]23CCC(C)(C)CC2C2=CCC4C5(C)CC[C@H](O[C@@H]6O[C@H](C(=O)NCCCCCCCCc7ccc(N8CCOCC8)cc7)[C@@H](O)[C@H](O)[C@H]6O)[C@](C)(C=O)[C@@H]5CC[C@]4(C)C2(C)CC3O)C(O[C@@H]2OC(C)[C@H](O[C@@H]3OC[C@@H](O)[C@H](O)C3O)[C@H](O)C2O)[C@@H](O)[C@H]1O (some centres unmarked) [Synsap 5],HI titers GMT mean,[1]; [6],2048
same,HI Titers Fold (compare to CpG1018),"[1]; Table 6, day 28",0.9
same,HI Titers Fold (compare to SynSap 17),"[1]; Table 6, day 28",1.0
same,HI titers Fold (compare to H3N2),"[1]; Table 6, day 28",13
same,Body weight change (%) Post-dose 1 D 1,[2]; [7],−3.166%
same,Body weight change (%) Post-dose 1 D 2,[2]; Table 5,1.523%
same,Body weight change (%) Post-dose 1 D 14,[2]; Table 5,4.909%
same,Body weight change (%) Post-dose 2 D 15,[2]; Table 5,−0.174%
same,Body weight change (%) Post-dose 2 D 16,[2]; Table 5,3.144%
same,Body weight change (%) Post-dose 2 D 21,[2]; Table 5,7.000%
CCC(C)C(CC(O)CC(=O)OC1C(C)OC(OC(=O)C23CCC(C)(C)CC2C2=CCC4C5(C)CCC(OC6OC(C(=O)O)C(O)C(OC7OCC(O)C(O)C7O)C6OC6OC(CO)C(O)C(O)C6O)C(C)(C=O)C5CCC4(C)C2(C)CC3O)C(OC2OC(C)C(OC3OCC(O)C(OC4OCC(O)(CO)C4O)C3O)C(OC3OC(CO)C(O)C(O)C3O)C2O)C1O)OC(=O)CC(O)CC(OC1OC(COC2OC(C)C(O)C(O)C2O)C(O)C1O)C(C)CC (centres unmarked) [QS-17],solubility in water,[3],water-soluble
"CCOCc1nc2c(N)nc3ccccc3c2n1CC(C)(C)O [Synsap R848, Resiquimod, reference compound]",HI titer GMT mean,[1]; [8],183.8
same,HI titer Fold (compare to H3N2 alone),"[1]; Table 8, day 28",1.1
same,HI titer Fold (compare to R848 treated group),"[1]; Table 8, day 28",1.0
same,HI titer Fold (compare to SynSap 14 treated group),"[1]; Table 8, day 28",1.0
same,Body weight change (%) Post-dose 1 D 1,[2]; [9],−3.012%
same,Body weight change (%) Post-dose 1 D 2,[2]; Table 7,−0.416%
same,Body weight change (%) Post-dose 1 D 14,[2]; Table 7,5.224%
same,Body weight change (%) Post-dose 2 D 15,[2]; Table 7,−4.078%
same,Body weight change (%) Post-dose 2 D 16,[2]; Table 7,−0.804%
same,Body weight change (%) Post-dose 2 D 21,[2]; Table 7,1.856%
